In patent publication US12624018B1, “Inhibitors of RIPK2 and medical uses thereof” (Odyssey Therapeutics, Inc., priority 2022, dated 2026):
Read-outs that look alike come from different tables or passages of the source.

Columns and labels:
human NOD2 signaling = assay: Inhibition of human NOD2 signaling in HEK-Blue-hNOD2 cells (L18-MDP stimulated, SEAP reporter); format: cell-based; details: NOD2 ligand stimulation, SEAP reporter, read-out: hNOD2 IC50
How it was run: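 HEK-Blue-hNOD2 cells (HEK293 with NOD2 and SEAP reporter), 12500/well, treated with 10-point 3-fold compound dilutions plus L18-MDP 0.5 ng/mL final, 24 h at 37 °C. Supernatant SEAP read with QUANTI-Blue after 3 h at 620 nm; IC50 by 4-parameter fit vs DMSO±L18-MDP controls.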

RIPK2 enzyme = biological target: T1, RIPK2 enzyme (Homo sapiens, UniProt O43353); assay: RIPK2 inhibition (ADP-Glo Kinase Assay); format: biochemical; details: RIPK2 5 nM, ATP 150 μM, MBP substrate, read-out: RIPK2 IC50
T1 construct: purchased Carna 09-128
How it was run: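 Human RIPK2 (5 nM) preincubated with compound 30 min at room temperature in 50 mM HEPES pH 7.5, 10 mM MgCl2, 2 mM DTT, 1 mM EGTA, 0.01% Brij-35, 0.05% BSA; native swine MBP as substrate. ADP formed quantified by ADP-Glo luminescence; percent inhibition relative to DMSO and no-enzyme controls.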

[1] = Homo sapiens, HEK-Blue hNOD2, HEK-Blue-hNOD2 cells

T1 sequence (O43353 1-299 limits assumed): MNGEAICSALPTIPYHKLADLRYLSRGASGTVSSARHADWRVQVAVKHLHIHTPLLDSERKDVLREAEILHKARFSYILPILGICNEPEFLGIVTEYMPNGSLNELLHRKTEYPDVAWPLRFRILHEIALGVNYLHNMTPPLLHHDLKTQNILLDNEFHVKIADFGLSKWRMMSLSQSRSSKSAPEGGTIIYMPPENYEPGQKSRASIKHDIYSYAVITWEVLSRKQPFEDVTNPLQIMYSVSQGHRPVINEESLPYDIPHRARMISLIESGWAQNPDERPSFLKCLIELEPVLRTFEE

IC50 (human NOD2 signaling; [1])	IC50 (RIPK2 enzyme)	IC50 (human NOD2 signaling; HEK-Blue-hNOD2 cells)	SMILES
0.6 nM	< 2.5 nM		[2H]C([2H])([2H])NC(=O)c1cc2c(Oc3c(C)cc(CC(=O)Nc4cnn(C(C)(C)C)c4)cc3Cl)ccnc2cc1F [Compound 586, 4-(4-(2-((1-(tert-butyl)-1H-pyrazol-4-yl)amino)-2-oxoethyl)-2-chloro-6-methylphenoxy)-7-fluoro-N-(methyl-d3)quinoline-6-carboxamide]
0.3 nM	< 2.5 nM		Cc1cc(CC(=O)Nc2cnn(C(C)(C)C)c2)c(F)cc1Oc1ccnc2ccc(-c3cnccc3C)cc12 [Compound 507, N-(1-(tert-butyl)-1H-pyrazol-4-yl)-2-(2-fluoro-5-methyl-4-((6-(4-methylpyridin-3-yl)quinolin-4-yl)oxy)phenyl)acetamide]
0.7 nM	< 2.5 nM		[2H]C([2H])([2H])C(n1cc(NC(=O)Cc2cc(C)c(Oc3ccnc4cc(F)c(C(=O)NC)cc34)cc2F)cn1)(C([2H])([2H])[2H])C([2H])([2H])[2H] [Compound 596, 7-fluoro-4-(5-fluoro-2-methyl-4-(2-((1-(2-(methyl-d3)propan-2-yl-1,1,1,3,3,3-d6)-1H-pyrazol-4-yl)amino)-2-oxoethyl)phenoxy)-N-methylquinoline-6-carboxamide]
6.9 nM	< 2.5 nM		CNC(=O)c1cc2c(Oc3cc(F)c(CC(=O)Nc4cnn(C(C)(C)C)c4)cc3C)ccnc2cc1Cl [Compound 565, 4-(4-(2-((1-(tert-butyl)-1H-pyrazol-4-yl)amino)-2-oxoethyl)-5-fluoro-2-methylphenoxy)-7-chloro-N-methylquinoline-6-carboxamide]
	< 2.5 nM	22.4 nM	Cc1cc(CC(=O)Nc2cnn(C(C)(C)C)c2)ccc1Oc1ccnc2ccc(C(C)(O)C(N)=O)cc12 (single isomer, unassigned) [Compound 616, 2-(4-(4-(2-((1-(tert-butyl)-1H-pyrazol-4-yl)amino)-2-oxoethyl)-2-methylphenoxy)quinolin-6-yl)-2-hydroxypropanamide]
15.4 nM	< 2.5 nM		CC(C)(C)n1cc(NC(=O)Cc2cc(Cl)c(Oc3ccnc4ccc(CS(C)(=O)=O)cc34)cc2F)cn1 [Compound 561, N-(1-(tert-butyl)-1H-pyrazol-4-yl)-2-(5-chloro-2-fluoro-4-((6-((methylsulfonyl)methyl)quinolin-4-yl)oxy)phenyl)acetamide]
	< 2.5 nM	0.2 nM	Cc1c(Oc2ccnc3ccc(S(=N)(=O)C(C)C)cc23)ccc(CC(=O)Nc2cnn(C(C)(C)C)c2)c1F (single isomer, unassigned) [Compound 538, N-(1-(tert-butyl)-1H-pyrazol-4-yl)-2-(2-fluoro-3-methyl-4-((6-(propan-2-ylsulfonimidoyl)quinolin-4-yl)oxy)phenyl) acetamide]
3.6 nM	< 2.5 nM		Cc1nc(CC(=O)Nc2cnn(C(C)(C)C)c2)ccc1Oc1ccnc2cc(F)c(C(N)=O)cc12 [Compound 612, 4-((6-(2-((1-(tert-butyl)-1H-pyrazol-4-yl)amino)-2-oxoethyl)-2-methylpyridin-3-yl)oxy)-7-fluoroquinoline-6-carboxamide]
0.8 nM	3.8 nM		Cc1c(Oc2ccnc3ccc(C4(C(N)=O)CCC4)cc23)cc(F)c(CC(=O)Nc2cnn(C(C)(C)C)c2)c1F [Compound 606, 1-(4-(4-(2-((1-(tert-butyl)-1H-pyrazol-4-yl)amino)-2-oxoethyl)-3,5-difluoro-2-methylphenoxy)quinolin-6-yl)cyclobutane-1-carboxamide]
0.6 nM	< 2.5 nM		Cc1cc(CC(=O)Nc2cnn(C(C)(C)C)c2)c(F)cc1Oc1ccnc2ccc(C(=O)N(C)C3(C)CC3)cc12 [Compound 519, 4-(4-(2-((1-(tert-butyl)-1H-pyrazol-4-yl)amino)-2-oxoethyl)-5-fluoro-2-methylphenoxy)-N-methyl-N-(1-methylcyclopropyl)quinoline-6-carboxamide]
1.8 nM	< 2.5 nM		CSc1ccc2nccc(Oc3ccc(CC(=O)Nc4cnn(C(C)(C)C)c4)cc3C)c2c1 [Compound 486, N-(1-(tert-butyl)-1H-pyrazol-4-yl)-2-(3-methyl-4-((6-(methylthio)quinolin-4-yl)oxy)phenyl)acetamide]
1.7 nM	< 2.5 nM		CNC(=O)c1cc2c(Oc3c(C)cc(CC(=O)Nc4cnn(C(C)(C)C)c4)cc3F)ccnc2cc1F [Compound 599, 4-(4-(2-((1-(tert-butyl)-1H-pyrazol-4-yl)amino)-2-oxoethyl)-2-fluoro-6-methylphenoxy)-7-fluoro-N-methylquinoline-6-carboxamide]
1.1 nM	< 2.5 nM		Cc1cc(CC(=O)Nc2cc(C(C)(C)C)[nH]n2)cc(F)c1Oc1ccnc2cc(F)c(C(N)=O)cc12 [Compound 617, 4-(4-(2-((5-(tert-butyl)-1H-pyrazol-3-yl)amino)-2-oxoethyl)-2-fluoro-6-methylphenoxy)-7-fluoroquinoline-6-carboxamide]
31.2 nM	< 2.5 nM		Cc1cc(CC(=O)Nc2cnn(C34CC(C3)C4)c2)cc(Cl)c1Oc1ccnc2ccc(C(N)=O)cc12 [Compound 590, 4-(4-(2-((1-(bicyclo[1.1.1]pentan-1-yl)-1H-pyrazol-4-yl)amino)-2-oxoethyl)-2-chloro-6-methylphenoxy)quinoline-6-carboxamide]
	< 2.5 nM	0.5 nM	Cc1c(Oc2ccnc3ccc(S(=N)(=O)C(C)(C)C)cc23)ccc(CC(=O)Nc2cnn(C(C)(C)C)c2)c1F (single isomer, unassigned) [Compound 540, N-(1-(tert-butyl)-1H-pyrazol-4-yl)-2-(2-fluoro-3-methyl-4-((6-(2-methylpropan-2-ylsulfonimidoyl)quinolin-4-yl)oxy)phenyl) acetamide]
4.6 nM	< 2.5 nM		CNC(=O)c1cc2c(Oc3ccc(CC(=O)Nc4cnn(C(C)(C)C)c4)nc3C)ccnc2cc1F [Compound 613, 4-((6-(2-((1-(tert-butyl)-1H-pyrazol-4-yl)amino)-2-oxoethyl)-2-methylpyridin-3-yl)oxy)-7-fluoro-N-methylquinoline-6-carboxamide]
	< 2.5 nM	16.9 nM	N=S(=O)(c1ccc2nccc(Oc3cc(F)c(CC(=O)Nc4cnn(C56CC(C5)C6)c4)cc3Cl)c2c1)C1CC1 (single isomer, unassigned) [Compound 532, N-(1-(bicyclo[1.1.1]pentan-1-yl)-1H-pyrazol-4-yl)-2-(5-chloro-4-((6-(cyclopropanesul-fonimidoyl)quinolin-4-yl)oxy)-2-fluorophenyl) acetamide]
4 nM	< 2.5 nM		CNC(=O)c1ccc2nccc(Oc3ccc(CC(=O)Nc4cnn(C(C)(C)C)c4)cc3C(F)F)c2c1 [Compound 463, 4-(4-(2-((1-(tert-butyl)-1H-pyrazol-4-yl)amino)-2-oxoethyl)-2-(difluoromethyl)phenoxy)-N-methylquinoline-6-carboxamide]
10.4 nM	< 2.5 nM		CC(C)(C)n1cc(NC(=O)Cc2cc(Cl)c(Oc3ccnc4ccc(S(=N)(=O)C5CC5)cc34)cc2F)cn1 (single isomer, unassigned) [Compound 533, N-(1-(tert-butyl)-1H-pyrazol-4-yl)-2-(5-chloro-4-((6-(cyclopropanesul-fonimidoyl)quinolin-4-yl)oxy)-2-fluorophenyl) acetamide]
